# Earlier results, collected in patent publication US20070196901A1, “Kahalalide-producing bacteria” (priority 2003, published 2007).
# Legend:
# HIV-1 = conditions: read-out: HIV-1 EC50; antiviral
# [1] = system: AIDS-opportunistic infection pathogens; conditions: against AIDS-opportunistic infection pathogens, compared with reference drugs
substance,measurement,setting,value
kahalalide F [KF],EC50,HIV-1,14.2 µM
same,efficacy in clinical trials against prostate cancer,prostate cancer,effective
same,inhibition of M. tuberculosis,M. tuberculosis,moderately inhibitory
same,antifungal activity,[1],comparable to the activity of the drugs Amphotericin B and Ketoconazole/Rifampin
